Reference: PubChem BioAssay AID330 (DTP/NCI, 2004)
“And” between values parts separate entries of the source, which are not always exact repeats. Identical values can stand only once. Inconclusive results and toxic doses are left out. Square brackets hold non-standard residues; d marks the D form. Peptide text beside a SMILES is read from it. Ac5c = NC1(C(=O)O)CCCC1

System: P388 leukemia ip, CD2F1 mice, survival T/C
Assay: NCI In Vivo Anticancer Drug Screen. Data for tumor model P388 Leukemia (intraperitoneal) in CD2F1 (CDF1) mice
Details: endpoint: median survival time, higher = longer survival
How it was run: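 Mice carrying the transplanted tumor received test compound or vehicle. Survival was recorded in each group, and the value is the treated-group measurement divided by that of the vehicle-treated control group.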

[1] = dose: 25.0 mg/kg/injection, schedule: Q01DX005 (ip), vehicle: saline
[2] = dose: 50.0 mg/kg/injection, schedule: Q01DX005 (ip), vehicle: saline
[3] = dose: 60.0 mg/kg/injection, schedule: Q01DX005 (ip), vehicle: Klucel (hydroxypropylcellulose) (HPC)
[4] = dose: 120.0 mg/kg/injection, schedule: Q01DX005 (ip), vehicle: Klucel (hydroxypropylcellulose) (HPC)
[5] = dose: 240.0 mg/kg/injection, schedule: Q01DX005 (ip), vehicle: Klucel (hydroxypropylcellulose) (HPC)
[6] = dose: 60.0 mg/kg/injection, schedule: Q01DX005 (ip), vehicle: saline with Tween-80
[7] = dose: 120.0 mg/kg/injection, schedule: Q01DX005 (ip), vehicle: saline with Tween-80
[8] = dose: 240.0 mg/kg/injection, schedule: Q01DX005 (ip), vehicle: saline with Tween-80
[9] = dose: 60.0 mg/kg/injection, schedule: Q01DX005 (ip), vehicle: saline
[10] = dose: 120.0 mg/kg/injection, schedule: Q01DX005 (ip), vehicle: saline
[11] = dose: 240.0 mg/kg/injection, schedule: Q01DX005 (ip), vehicle: saline
[12] = dose: 100.0 mg/kg/injection, schedule: Q01DX001 (ip), vehicle: saline with Tween-80
[13] = dose: 200.0 mg/kg/injection, schedule: Q01DX001 (ip), vehicle: saline with Tween-80

## O=C(O)c1cc(C(=O)O)c(C(=O)O)cc1C(=O)O.[NH2-].[NH2-].[NH2-].[NH2-].[Pt+2].[Pt+2]
dose: 0.78 mg/kg/injection, schedule: Q01DX005 (ip), vehicle: water
  T/C: 106 % of control
dose: 1.56 mg/kg/injection, schedule: Q01DX005 (ip), vehicle: suspension in saline
  T/C: 108 % of control
dose: 1.56 mg/kg/injection, schedule: Q01DX005 (ip), vehicle: water
  T/C: 115 % of control
dose: 3.12 mg/kg/injection, schedule: Q01DX005 (ip), vehicle: saline
  T/C: 113 % of control
dose: 3.13 mg/kg/injection, schedule: Q01DX005 (ip), vehicle: water
  T/C: 119 % of control
dose: 6.25 mg/kg/injection, schedule: Q01DX005 (ip), vehicle: saline
  T/C: 105 % of control
dose: 6.25 mg/kg/injection, schedule: Q01DX005 (ip), vehicle: suspension in saline
  T/C: 118 % of control
dose: 9.0 mg/kg/injection, schedule: Q01DX005 (ip), vehicle: suspension in saline
  T/C: 110 % of control
dose: 12.5 mg/kg/injection, schedule: Q01DX005 (ip), vehicle: suspension in saline
  T/C: 161 % of control
dose: 12.5 mg/kg/injection, schedule: Q01DX005 (ip), vehicle: water
  T/C: 166 % of control
[1]
  T/C: 153 % of control
dose: 25.0 mg/kg/injection, schedule: Q01DX005 (ip), vehicle: suspension in saline
  T/C: 174 % of control and 176 % of control
dose: 41.67 mg/kg/injection, schedule: Q01DX005 (ip), vehicle: suspension in saline
  T/C: 150 % of control
[2]
  T/C: 186 % of control

## CCCC[N+]1(CC)CCCCC1
dose: 3.12 mg/kg/injection, schedule: Q01DX009 (ip), vehicle: saline
  T/C: 97 % of control
dose: 6.25 mg/kg/injection, schedule: Q01DX009 (ip), vehicle: saline
  T/C: 113 % of control
dose: 12.5 mg/kg/injection, schedule: Q01DX009 (ip), vehicle: saline
  T/C: 106 % of control

## C[n+]1c2ccccc2c(Oc2c3ccccc3[n+](C)c3ccccc23)c2ccccc21
[3]
  T/C: 91 % of control
[4]
  T/C: 93 % of control
[5]
  T/C: 100 % of control

## COc1ccc(-c2oc(=O)cc(-c3ccccc3)c2-c2ccccc2)cc1
dose: 50.0 mg/kg/injection, schedule: Q01DX005 (ip), vehicle: saline with Tween-80
  T/C: 112 % of control
dose: 100.0 mg/kg/injection, schedule: Q01DX005 (ip), vehicle: saline with Tween-80
  T/C: 93 % of control
dose: 200.0 mg/kg/injection, schedule: Q01DX005 (ip), vehicle: saline with Tween-80
  T/C: 87 % of control

## Cc1ccc2c(c1)S(=O)(=O)NC2=O
[6]
  T/C: 95 % of control
[7]
  T/C: 92 % of control
[8]
  T/C: 95 % of control

## COC1=CC(C)C2CC3OC(O)CC4C(C)=C(OC)C(=O)C(C2(C)C1=O)C34C (stereo not drawn)
[3]
  T/C: 94 % of control
[4]
  T/C: 94 % of control
[5]
  T/C: 89 % of control

## NC(=O)C1CC(O)CN1C(=O)c1cccnc1 (stereo not drawn)
[9]
  T/C: 101 % of control
[10]
  T/C: 100 % of control
[11]
  T/C: 93 % of control

## COC1=C(OC)C(C(O)CO)OC1=O (stereo not drawn)
dose: 25.0 mg/kg/injection, schedule: Q01DX009 (ip), vehicle: water
  T/C: 98 % of control
dose: 50.0 mg/kg/injection, schedule: Q01DX009 (ip), vehicle: water
  T/C: 98 % of control
dose: 100.0 mg/kg/injection, schedule: Q01DX009 (ip), vehicle: water
  T/C: 90 % of control
dose: 200.0 mg/kg/injection, schedule: Q01DX009 (ip), vehicle: water
  T/C: 99 % of control
dose: 400.0 mg/kg/injection, schedule: Q01DX009 (ip), vehicle: water
  T/C: 96 % of control

## COc1cc(OC)c2cc(-n3nnc4cc([N+](=O)[O-])ccc43)c(=O)oc2c1
dose: 7.5 mg/kg/injection, schedule: Q01DX005 (ip), vehicle: saline with Tween-80
  T/C: 100 % of control
dose: 15.0 mg/kg/injection, schedule: Q01DX005 (ip), vehicle: saline with Tween-80
  T/C: 95 % of control
dose: 30.0 mg/kg/injection, schedule: Q01DX005 (ip), vehicle: saline with Tween-80
  T/C: 88 % of control
[6]
  T/C: 88 % of control

## O=c1c2cocc2c(O)c2n1Cc1cc3ccccc3nc1-2
dose: 50.0 mg/kg/injection, schedule: Q01DX001 (ip), vehicle: saline with Tween-80
  T/C: 100 % of control and 101 % of control
[12]
  T/C: 99 % of control and 110 % of control and 120 % of control
[13]
  T/C: 99 % of control and 110 % of control and 120 % of control
dose: 400.0 mg/kg/injection, schedule: Q01DX001 (ip), vehicle: saline with Tween-80
  T/C: 100 % of control and 102 % of control and 112 % of control

## [NH-]C(CCC(N)=O)C(=O)O.[NH-]C(CCCCN)C(=O)O.[Zn+2] (stereo not drawn)
dose: 12.5 mg/kg/injection, schedule: Q01DX005 (ip), vehicle: saline
  T/C: 102 % of control
[1]
  T/C: 105 % of control
[2]
  T/C: 110 % of control

## CC(NC(=O)C(CO)NC(=O)c1cnc2ccccc2n1)C(=O)OC(C)(C)C (stereo not drawn)
dose: 60.0 mg/kg/injection, schedule: Q01DX005 (ip), vehicle: DMSO
  T/C: 98 % of control
dose: 120.0 mg/kg/injection, schedule: Q01DX005 (ip), vehicle: DMSO
  T/C: 99 % of control
dose: 240.0 mg/kg/injection, schedule: Q01DX005 (ip), vehicle: DMSO
  T/C: 109 % of control

## O=[N+]([O-])c1cccc(OCCOc2ccccc2)c1
dose: 100.0 mg/kg/injection, schedule: Q01DX009 (ip), vehicle: other
  T/C: 110 % of control
dose: 200.0 mg/kg/injection, schedule: Q01DX009 (ip), vehicle: other
  T/C: 105 % of control

## COC(=O)C1(CC(=O)c2ccc(C)cc2)NC(=S)NC(=O)C1C#N (stereo not drawn)
[9]
  T/C: 100 % of control
[10]
  T/C: 104 % of control
[11]
  T/C: 100 % of control

## NCC(=O)NC1(C(=O)O)CCCC1 (H-Gly-[Ac5c]-OH)
dose: 25.0 mg/kg/injection, schedule: Q01DX009 (ip), vehicle: saline
  T/C: 118 % of control
dose: 50.0 mg/kg/injection, schedule: Q01DX009 (ip), vehicle: saline
  T/C: 118 % of control
dose: 100.0 mg/kg/injection, schedule: Q01DX009 (ip), vehicle: saline
  T/C: 122 % of control
dose: 100.0 mg/kg/injection, schedule: Q04DX003 (ip), vehicle: saline
  T/C: 95 % of control
dose: 200.0 mg/kg/injection, schedule: Q01DX009 (ip), vehicle: saline
  T/C: 105 % of control
dose: 200.0 mg/kg/injection, schedule: Q04DX003 (ip), vehicle: saline
  T/C: 100 % of control
dose: 400.0 mg/kg/injection, schedule: Q01DX009 (ip), vehicle: saline
  T/C: 93 % of control
dose: 400.0 mg/kg/injection, schedule: Q04DX003 (ip), vehicle: saline
  T/C: 108 % of control

## CCOc1cc(C=Nc2cc(Cl)c(O)c(Cl)c2)ccc1N(CCCl)CCCl
dose: 3.13 mg/kg/injection, schedule: Q04DX003 (ip), vehicle: saline with Tween-80
  T/C: 122 % of control
dose: 12.5 mg/kg/injection, schedule: Q01DX009 (ip), vehicle: saline with Tween-80
  T/C: 218 % of control
dose: 12.5 mg/kg/injection, schedule: Q04DX003 (ip), vehicle: saline with Tween-80
  T/C: 168 % of control
dose: 16.5 mg/kg/injection, schedule: Q04DX003 (ip), vehicle: saline with Tween-80
  T/C: 171 % of control
dose: 25.0 mg/kg/injection, schedule: Q01DX009 (ip), vehicle: saline with Tween-80
  T/C: 150 % of control
dose: 25.0 mg/kg/injection, schedule: Q04DX003 (ip), vehicle: saline with Tween-80
  T/C: 185 % of control and 200 % of control
dose: 37.5 mg/kg/injection, schedule: Q04DX003 (ip), vehicle: saline with Tween-80
  T/C: 204 % of control
dose: 50.0 mg/kg/injection, schedule: Q04DX003 (ip), vehicle: saline with Tween-80
  T/C: 90 % of control

## C(=N\Nc1ccccn1)/c1ccccn1.C(=N\Nc1ccccn1)/c1ccccn1.[Cl-].[Fe+3]
[12]
  T/C: 100 % of control
[13]
  T/C: 89 % of control

## NC(Cc1cc(I)c(O)c(I)c1)C(=O)O (stereo not drawn)
dose: 50.0 mg/kg/injection, schedule: Q01DX009 (ip), vehicle: saline with Tween-80
  T/C: 110 % of control
dose: 100.0 mg/kg/injection, schedule: Q01DX009 (ip), vehicle: saline with Tween-80
  T/C: 108 % of control
dose: 200.0 mg/kg/injection, schedule: Q01DX009 (ip), vehicle: saline with Tween-80
  T/C: 88 % of control

## CC(C(=O)c1ccc(Cl)cc1)C1(O)C(=O)Nc2ccccc21 (stereo not drawn)
[6]
  T/C: 108 % of control
[7]
  T/C: 111 % of control
[8]
  T/C: 94 % of control

## CCN(CC)CCNc1nc(NCCN(CC)CC)c2cn[nH]c2n1
dose: 1.5 mg/kg/injection, schedule: Q01DX005 (ip), vehicle: saline
  T/C: 99 % of control
dose: 3.0 mg/kg/injection, schedule: Q01DX005 (ip), vehicle: saline
  T/C: 103 % of control
dose: 6.0 mg/kg/injection, schedule: Q01DX005 (ip), vehicle: saline
  T/C: 100 % of control and 102 % of control
